Assay results from patent publication US20240116985A1, “STAPLED PEPTIDES AND METHODS THEREOF” (priority 2020, published 2024).
In brackets after ≈: the same amount, converted by molar mass. Where two headings read alike, the source gives them in different places.

Tests used:
CHI Log D procedure = assay type: physicochemical; conditions: for logD: pH 7.4, CHI Log D; for CHI Log D: pH 7.4
Solubility in PBS = assay type: physicochemical
How it was run: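 Read-out is the HPLC peak area of the supernatant from ultracentrifuged PBS solution, scaled against a 50 μM peptide DMSO injection; value reported as [(PBS area)/(DMSO area)]*50 uM.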

Row | SMILES | logD (CHI Log D procedure) | Solubility (Solubility in PBS; Solubility (uM)) [µM] | CHI Log D (CHI Log D procedure) | Solubility (Solubility in PBS) [µM] | Solubility (Solubility in PBS; 15 min) [µM]
1 | CC(=O)N1CCC[C@]12CC=CCCCC1(CCCC=CCCCOC(=O)N3CC[C@@](C(=O)N[C@@H](Cc4ccsc4)C(=O)N[C@@H](Cc4csc5ccccc45)C(=O)N[C@@H](CCC(N)=O)C(=O)N[C@@H](C)C(=O)N[C@@H](C)C(=O)N[C@@H](C)C(N)=O)(C3)NC(=O)[C@H](CC(N)=O)NC(=O)[C@H](Cc3ccccc3)NC(=O)[C@H](C)NC(=O)[C@H](C)NC(=O)[C@H](CC(=O)O)NC(=O)[C@H](CC(=O)O)NC1=O)NC(=O)[C@H](CC(C)(C)C)NC(=O)[C@H](CC(=O)O)NC2=O (stereo partly drawn) [I-870, Ac-PL3-Asp-Npg-B5-Asp-Asp-Ala-Ala-Phe-Asn-PyrS2-3Thi-BztA-Gln-Ala-Ala] | 1.99 | 47 (≈ 100 µg/mL) | – | – | –
2 | CC(=O)N1CCC[C@]12CC=CCCCC1(CCCC=CCCCCCC[C@@](C)(C(=O)N[C@@H](Cc3ccccc3)C(=O)N[C@@H](Cc3csc4ccccc34)C(=O)N[C@@H](CCC(N)=O)C(N)=O)NC(=O)[C@H](CC(N)=O)NC(=O)[C@H](Cc3ccccc3)NC(=O)[C@H](C)NC(=O)[C@H](C)NC(=O)[C@H](CCC(=O)O)NC(=O)[C@H](CCNS(C)(=O)=O)NC1=O)NC(=O)[C@H](C)NC(=O)[C@H](CC(=O)O)NC2=O (stereo partly drawn) [I-531, Ac-PL3-Asp-Ala-B5-[MeSO2]Dab-Glu-Ala-Ala-Phe-Asn-S8-Phe-BztA-Gln-NH2] | – | – | 2.794 | 43 (≈ 81.3 µg/mL) | –
3 | CC(=O)N1CCC[C@]12CC=CCCCC1(CCCC=CCCCCCC[C@@](C)(C(=O)N[C@@H](Cc3cn(C)cn3)C(=O)N[C@@H](Cc3csc4ccccc34)C(=O)N[C@@H](CCC(N)=O)C(N)=O)NC(=O)[C@H](CC(N)=O)NC(=O)[C@H](Cc3ccccc3)NC(=O)[C@H](C)NC(=O)[C@H](C)NC(=O)[C@H](CCC(=O)O)NC(=O)[C@H](CC(=O)O)NC1=O)NC(=O)[C@H](C)NC(=O)[C@H](CC(=O)O)NC2=O (stereo partly drawn) [I-440, Ac-PL3-Asp-Ala-B5-Asp-Glu-Ala-Ala-Phe-Asn-S8-1meH-BztA-Gln-NH2] | – | – | 1.613 | 50 (≈ 91.6 µg/mL) | –
4 | CC(=O)N1CCC[C@]12CC=CCCCC1(CCCC=CCCCOC(=O)N3CC[C@@](C(=O)N[C@@H](Cc4ccsc4)C(=O)N[C@@H](Cc4csc5ccccc45)C(=O)N[C@@H](Cc4c[nH]cn4)C(N)=O)(C3)NC(=O)[C@H](CC(N)=O)NC(=O)[C@H](Cc3ccccc3)NC(=O)[C@H](C)NC(=O)[C@H](CCCCNC(=O)Cn3cc(CNC(=O)c4ccc5c(c4)C4(OC5=O)c5ccc(O)cc5Oc5cc(O)ccc54)nn3)NC(=O)[C@H](CC(=O)O)NC(=O)[C@H](CC(=O)O)NC1=O)NC(=O)[C@H](CC(C)(C)C)NC(=O)[C@H](CC(=O)O)NC2=O (stereo partly drawn) [I-865, Ac-PL3-Asp-Npg-B5-Asp-Asp-[FAM6Ppg][1TriAc]Lys-Ala-Phe-Asn-PyrS2-3Thi-BztA-His-NH2] | 1.62 | 38 (≈ 94.3 µg/mL) | – | – | –
5 | CC(=O)N1CCC[C@]12CC=CCCCC1(CCCC=CCCCOC(=O)N3CC[C@@](C(=O)N[C@@H](Cc4ccsc4)C(=O)N[C@@H](Cc4csc5ccccc45)C(=O)N[C@@H](CCC(N)=O)C(N)=O)(C3)NC(=O)[C@H](Cc3ccccc3)NC(=O)[C@H](Cc3ccccc3)NC(=O)[C@H](C)NC(=O)[C@H](CCCCNC(=O)c3ccc(-n4cc(CNC(=O)c5ccc6c(c5)C5(OC6=O)c6ccc(O)cc6Oc6cc(O)ccc65)nn4)cc3)NC(=O)[C@H](CC(C)C)NC(=O)[C@H](CC(=O)O)NC1=O)NC(=O)[C@H](CC(C)(C)C)NC(=O)[C@H](CC(=O)O)NC2=O (stereo partly drawn) [I-869, Ac-PL3-Asp-Npg-B5-Asp-Leu-[FAM6Ppg][p1TB]Lys-Ala-Phe-Phe-PyrS2-3Thi-BztA-Gln-NH2] | 1.91 | – | – | 10 (≈ 25.6 µg/mL) | –
6 | C=CC(=O)NC[C@H](NC(=O)[C@]1(C)CCCCCCC=CCCCC2(CCCC=CC[C@]3(CCCN3C(C)=O)C(=O)N[C@@H](CC(=O)O)C(=O)N[C@@H]([C@@H](C)CC)C(=O)N2)C(=O)N[C@@H](CC(=O)O)C(=O)N[C@@H](CC(=O)O)C(=O)N[C@@H](C)C(=O)N[C@@H](C)C(=O)N[C@@H](Cc2ccccc2)C(=O)N[C@@H](CCC(N)=O)C(=O)N1)C(=O)N[C@@H](Cc1csc2ccccc12)C(=O)N[C@@H](CCC(N)=O)C(N)=O (stereo partly drawn) [I-483, Ac-PL3-Asp-Ile-B5-Asp-Asp-Ala-Ala-Phe-Gln-S8-[Acryl]Dap-BztA-Gln-NH2] | – | – | 1.845 | 43 (≈ 80.1 µg/mL) | –
7 | CC(=O)N1CCC[C@]12CC=CCCCC1(CCCC=CCCCCCC[C@@](C)(C(=O)N[C@@H](Cc3ccccc3)C(=O)N[C@@H](Cc3c[nH]c4ccccc34)C(=O)N[C@@H](CCC(N)=O)C(N)=O)NC(=O)[C@H](C(C)C)NC(=O)[C@H](Cc3ccccc3)NC(=O)[C@H](C)NC(=O)[C@H](C)NC(=O)[C@H](CC(=O)O)NC(=O)[C@H](CC(=O)O)NC1=O)NC(=O)[C@H](C)NC(=O)[C@H](C)NC2=O (stereo partly drawn) [I-348, Ac-PL3-Ala-Ala-B5-Asp-Asp-Ala-Ala-Phe-Val-S8-Phe-Trp-Gln-NH2] | – | – | 2.397 | 46 (≈ 79.9 µg/mL) | –
8 | CC(=O)N1CCC[C@]12CC=CCCCC1(CCCC=CCCCCCC[C@@](C)(C(=O)N[C@@H](Cc3ccccc3)C(=O)N[C@@H](Cc3csc4ccccc34)C(=O)N[C@@H](CCC(N)=O)C(N)=O)NC(=O)[C@H](CCC(N)=O)NC(=O)[C@H](Cc3ccccc3)NC(=O)[C@H](C)NC(=O)[C@H](C)NC(=O)[C@H](CCC(=O)O)NC(=O)[C@H](CC(=O)O)NC1=O)NC(=O)[C@H](C)NC(=O)[C@H](Cc1nn[nH]n1)NC2=O (stereo partly drawn) [I-416, Ac-PL3-tetz-Ala-B5-Asp-Glu-Ala-Ala-Phe-Gln-S8-Phe-BztA-Gln-NH2] | – | – | 2.058 | 44 (≈ 82.1 µg/mL) | –
9 | CC(=O)N1CCC[C@]12CC=CCCCC1(CCCC=CCCCOC(=O)N3CC[C@@](C(=O)N[C@@H](Cc4ccsc4)C(=O)N[C@@H](Cc4csc5ccccc45)C(=O)N[C@@H](CCC(N)=O)C(N)=O)(C3)NC(=O)[C@H](CC(N)=O)NC(=O)[C@H](Cc3ccccc3)NC(=O)[C@H](C)NC(=O)[C@H](CCCCNC(=O)c3ccc(-n4cc(CNC(=O)c5ccc6c(c5)C5(OC6=O)c6ccc(O)cc6Oc6cc(O)ccc65)nn4)cc3)NC(=O)[C@H](CC(C)C)NC(=O)[C@H](CC(=O)O)NC1=O)NC(=O)[C@H](CC(C)(C)C)NC(=O)[C@H](CC(=O)O)NC2=O (stereo partly drawn) [I-867, Ac-PL3-Asp-Npg-B5-Asp-Leu-[FAM6Ppg][p1TB]Lys-Ala-Phe-Asn-PyrS2-3Thi-BztA-Gln-NH2] | 1.8 | 13 (≈ 32.9 µg/mL) | – | – | –
10 | CC(=O)N1CCC[C@]12CC=CCCCC1(CCCC=CCCCCCC[C@@](C)(C(=O)N[C@@H](Cc3ccccc3)C(=O)N[C@@H](Cc3csc4ccccc34)C(=O)N[C@@H](CCC(N)=O)C(N)=O)NC(=O)[C@H](CCC(N)=O)NC(=O)[C@H](Cc3ccccc3)NC(=O)[C@H](C)NC(=O)[C@H](C)NC(=O)[C@H](CCC(=O)O)NC(=O)[C@H](CCO)NC1=O)NC(=O)[C@H](C)NC(=O)[C@H](CC(=O)O)NC2=O (stereo partly drawn) [I-498, Ac-PL3-Asp-Ala-B5-Hse-Glu-Ala-Ala-Phe-Gln-S8-Phe-BztA-Gln-NH2] | – | – | 2.637 | 42 (≈ 76.7 µg/mL) | –
11 | CC(=O)N1CCC[C@]12CC=CCCCC1(CCCC=CCCCCCC[C@@](C)(C(=O)N[C@@H](Cc3ccccc3)C(=O)N[C@@H](Cc3csc4ccccc34)C(N)=O)NC(=O)[C@H](CC(N)=O)NC(=O)[C@H](Cc3ccccc3)NC(=O)[C@H](C)NC(=O)[C@H](C)NC(=O)[C@H](CCC(=O)O)NC(=O)[C@H](CC(=O)O)NC1=O)NC(=O)[C@H](CC1CCCCC1)NC(=O)[C@H](CC(=O)O)NC2=O (stereo partly drawn) [I-626, Ac-PL3-Asp-Cha-B5-Asp-Glu-Ala-Ala-Phe-Asn-S8-Phe-BztA-NH2] | – | – | 2.048 | 50 (≈ 89.1 µg/mL) | –
12 | CC(=O)N1CCC[C@]12CC=CCCCC1(CCCC=CCCCCCC[C@@](C)(C(=O)N[C@@H](Cc3ccccc3)C(=O)N[C@@H](Cc3csc4ccccc34)C(=O)N[C@@H](CCC(N)=O)C(N)=O)NC(=O)[C@H](CCC(N)=O)NC(=O)[C@H](Cc3ccccc3)NC(=O)[C@H](C)NC(=O)[C@H](C)NC(=O)[C@H](CCC(=O)O)NC(=O)[C@H](CCO)NC1=O)NC(=O)[C@H](C)NC(=O)[C@H](CC(=O)O)NC2=O (stereo partly drawn) [I-497, Ac-PL3-Asp-Ala-B5-Hse-Glu-Ala-Ala-Phe-Gln-S8-Phe-BztA-Gln-NH2] | – | – | 2.6 | 29 (≈ 53 µg/mL) | –
13 | CC(=O)N1CCC[C@]12CC=CCCCC1(CCCC=CCCCCCC[C@@](C)(C(=O)N[C@@H](Cc3ccccc3)C(=O)N[C@@H](Cc3c[nH]c4ccccc34)C(=O)N[C@@H](CCC(N)=O)C(N)=O)NC(=O)[C@H](C(C)C)NC(=O)C(Cc3cncn3C)NC(=O)[C@H](C)NC(=O)[C@H](C)NC(=O)[C@H](CC(=O)O)NC(=O)[C@H](CC(=O)O)NC1=O)NC(=O)[C@H](C)NC(=O)[C@H](CC(=O)O)NC2=O (single isomer, unassigned) [I-332, Ac-PL3-Asp-Ala-B5-Asp-Asp-Ala-Ala-3meH-Val-S8-Phe-Trp-Gln-NH2] | – | – | 2.038 | – | 40 (≈ 71.4 µg/mL)
14 | CC(=O)N1CCC[C@]12CC=CCCCC1(CCCC=CCCCCCC[C@@](C)(C(=O)N[C@@H](Cc3ccsc3)C(=O)N[C@@H](Cc3csc4ccccc34)C(=O)N[C@@H](CCC(N)=O)C(=O)N[C@H](C)C(=O)N[C@H](C)C(=O)N[C@H](C)C(N)=O)NC(=O)[C@H](CC(N)=O)NC(=O)[C@H](Cc3ccccc3)NC(=O)[C@H](C)NC(=O)[C@H](C)NC(=O)[C@H](CC(=O)O)NC(=O)[C@H](CC(=O)O)NC1=O)NC(=O)[C@H](CC(C)(C)C)NC(=O)[C@H](CC(=O)O)NC2=O (stereo partly drawn) [I-876, Ac-PL3-Asp-Npg-B5-Asp-Asp-Ala-Ala-Phe-Asn-S8-3Thi-BztA-Gln-dAla-dAla] | 2.26 | – | – | 50 (≈ 104 µg/mL) | –
15 | CC(=O)N1CCC[C@]12CC=CCCCC1(CCCC=CCCCCCC[C@@](C)(C(=O)N[C@@H](Cc3ccccc3)C(=O)N[C@@H](Cc3csc4ccccc34)C(=O)N[C@@H](CCC(N)=O)C(N)=O)NC(=O)[C@H](CC(N)=O)NC(=O)[C@H](Cc3ccccc3)NC(=O)[C@H](C)NC(=O)[C@H](C)NC(=O)[C@H](CCC(=O)O)NC(=O)[C@H](CCNS(C)(=O)=O)NC1=O)NC(=O)[C@H](C)NC(=O)[C@H](CC(=O)O)NC2=O (stereo partly drawn) [I-532, Ac-PL3-Asp-Ala-B5-[MeSO2]Dab-Glu-Ala-Ala-Phe-Asn-S8-Phe-BztA-Gln-NH2] | – | – | 2.858 | 42 (≈ 79.4 µg/mL) | –
